Columns and labels:
Assay type in all cases: in vivo
[1] = tested on: Mosquito (Aedes aeqypti) larvae; test: Mosquito (Aedes aeqypti) Larval Assay; settings: first instar larvae, 25° C., 24 hours, lowest dose to inhibit motility ≧50% of untreated controls, half-log intervals, read-out: Minimum Effective Concentration (MEC)
Experimental: Mosquito (Aedes aeqypti) Larval Assay
Compounds were dissolved in DMSO and aliquots were spotted to empty wells. First instar mosquito larvae and maintenance media were added to the wells to obtain between 8 and 15 larvae per well in the appropriate final assay volume. Larvae were incubated in the treated media at 25° C. for 24 hours. Mosquito larvae motility was measured at 24 hours. Each compound was tested at half-log intervals, and endpoint results were recorded as Minimum Effective Concentration (MEC) in μM. MEC is an objective assessment of organism motility, and is the lowest dose to inhibit motility ≧50% of untreated controls.

[2] = tested on: Flea (Ctenocephalides felis); test: Flea (Ctenocephalides felis) Membrane Feed Assay-Adult; settings: adult fleas fed on treated citrated bovine blood for 24 hours, lowest dose to cause mortality ≧50%, half-log intervals, read-out: Minimum Effective Concentration (MEC)
Experimental: Flea (Ctenocephalides felis) Membrane Feed Assay-Adult
Compounds were dissolved in DMSO and aliquots were added to citrated bovine blood in membrane covered wells warmed to 37° C. Adult fleas were newly emerged (3-7 days) and unfed. Feeding wells containing approximately 10 adult fleas were placed onto the treated blood wells, and the fleas were allowed to feed on the treated blood for 24 hours. […] Each compound was tested at half-log intervals, and endpoint data was recorded as Minimum Effective Concentration in μM. MEC is a subjective visual assessment of organism viability, and is the lowest dose to cause mortality ≧50%.

[3] = tested on: Soft Tick (Ornithidorus turicata); test: Soft Tick (Ornithidorus turicata) Blood Feed Assay; settings: nymph stage ticks fed on treated citrated bovine blood; paralysis and/or death observed at approximately 24, 48 and 72 hours
Experimental: Soft Tick (Ornithidorus turicata) Blood Feed Assay
Compounds of the present invention were dissolved in dimethylsulfoxide (DMSO) and aliquots added to citrated bovine blood in a membrane covered Petri dish. The Petri dish is placed on a warming tray. Approximately 5 nymph stage ticks are placed onto the membrane, covered, and left to feed. Fed ticks are removed and placed into a Petri dish with sand. […] Endpoint data was recorded as a 100% lethal dose (LD^100) in μg/mL.

| SMILES | minimal effective concentration [1] [µM] | minimal effective concentration [2] [µM] | 100% lethal dose (LD100) [3] [µg/mL] |
| --- | --- | --- | --- |
| CS(=O)(=O)CC(=O)N1CC2(C1)OCc1cc(C3=NCC(c4cc(Cl)c(Cl)c(Cl)c4)(C(F)(F)F)C3)ccc12 (stereo not drawn) [Example 1, 2-(methylsulfonyl)-1-(5′-(3-(3,4,5-trichlorophenyl)-3-(trifluoromethyl)-3,4-dihydro-2H-pyrrol-5-yl)-3′H-spiro[azetidine-3,1′-isobenzofuran]-1-yl)ethanone] | 0.1 | 0.3 | 0.03 |
| CC(C)C(=O)N1CC2(C1)OCc1cc(C3=NCC(c4cc(Cl)cc(Cl)c4)(C(F)(F)F)C3)ccc12 (stereo not drawn) [Example 6, 5′-(3-(3,5-dichlorophenyl)-3-(trifluoromethyl)-3,4-dihydro-2H-pyrrol-5-yl]-1-isobutyryl-3′H-spiro[azetidine-3,1′-[2]benzofuran]] | 0.1 | 1 | 0.03 |
| CS(=O)(=O)CC(=O)N1CC2(C1)OCc1cc(C3=NNC(c4cc(Cl)c(F)c(Cl)c4)(C(F)(F)F)C3)ccc12 (stereo not drawn) [Example 13, 1-(5′-(5-(3,5-dichloro-4-fluorophenyl)-5-(trifluoromethyl)-4,5-dihydro-1H-pyrazol-3-yl)-3′H-spiro[azetidine-3,1′-isobenzofuran]-1-yl)-2-(methylsulfonyl)ethanone] | 0.1 | ≥ 3 | 0.03 |
| CS(=O)(=O)CC(=O)N1CC2(C1)OCc1cc(N3CCC(c4cc(Cl)c(F)c(Cl)c4)(C(F)(F)F)C3)ccc12 (stereo not drawn) [Example 22, 1-(5-(3-(3,5-dichloro-4-fluorophenyl)-3-(trifluoromethyl)pyrrolidin-1-yl)-3′H-spiro[azetidine-3,1′-isobenzofuran]-1-yl)-2-(methylsulfonyl)ethanone] | > 3 | ≥ 3 | 0.03 |
| CS(=O)(=O)CC(=O)N1CC2(C1)OCc1cc(N3CCC(c4cc(Cl)c(Cl)c(Cl)c4)(C(F)(F)F)C3)ccc12 (stereo not drawn) [Example 26, 5′-[3-(3,4,5-trichloro)-3-(trifluoromethyl)pyrrolidin-1-yl]-1-[(methylsulfonyl)acetyl]-3′H-spiro[azetidine-3,1′-[2]benzofuran]] | > 3 | ≥ 3 | 0.1 |
| CC(C)C(=O)N1CC2(C1)OCc1cc(C3=NOC(c4cc(Cl)c(F)c(Cl)c4)(C(F)(F)F)O3)ccc12 (stereo not drawn) [Example 28, 1-(5′-(5-(3,5-dichloro-4-fluorophenyl)-5-(trifluoromethyl)-1,4,2-dioxazol-3-yl)-3′H-spiro[azetidine-3,1′-isobenzofuran]-1-yl)-2-methyl propan-1-one] | 0.3 | ≥ 3 | 0.1 |
| CC(C)C(=O)N1CC2(C1)OCc1cc(C3=NOC(c4cc(Cl)c(Cl)c(Cl)c4)(C(F)(F)F)O3)ccc12 (stereo not drawn) [Example 31] | 0.3 | ≥ 3 | 0.3 |
